This passage reports IC50 results from patent US20250011311A1, “AMIDO HETEROAROMATIC COMPOUNDS” (AstraZeneca AB, priority 2022, published 2025).

Assay [1] has as its target recombinant 17bHSD13 (N2-K300) (Homo sapiens (Human), UniProt Q7Z5P4). The assay can be described thus: In Vitro 17bHSD13 Enzyme Assay. Format: biochemical. The following applies: 80 nM 17bHSD13, 0.5 mM NAD, 20 μM Estradiol, 2.5 h; estradiol to estrone by LC-MS/MS. Here is the method:
In Vitro 17bHSD13 Enzyme Assay
The enzyme reaction was initiated by addition, using CERTUS-FLEX dispenser (GYGER), of 20 μl of substrate solution containing NAD (SIGMA, N1511) and Estradiol (SIGMA, E8875). […] Final assay conditions were 80 nM of 17bHSD13, 0.5 mM of NAD, 20 μM Estradiol and various concentrations of compound in buffer (5 mM EDTA (TEKNOVA E0306), 0.01% DDM (AFFYMETRIX D310) in 50 mM Tris-Cl, pH 7.4).
(§1) SCIEX LC-MS/MS system: Sample was injected with CTC analytical injector, SHIMATZU LC pumps LC20 and analyzed on the SCIEX API 5000 LCMSMS system with the following settings. […] The mobile phases consist of A (water with 0.2% formic acid) and B (acetonitrile with 0.2% formic acid). The LC gradient profile is as follows: 50% B during 0 to 0.5 min, a linear increase to 100% B during 0.5 to 1 min, hold at 100% B during 1 to 1.6 min then back to 50% B from 1.6 to 2 min. […] Detection was performed on a API 5000 LC/MS/MS system with a triple quadrupole mass spectrometer, a TURBO V ion source, in multiple reaction monitoring (MRM) mode at positive polarity with APCI probe. […] The dwell times were 100 ms for each transition and a depolarization and collision energy of 100 and 40, respectively. Data from MS signals was using area under curve (AUC). Ratio=Estrone/(Estrone+Estradiol)
(§2) […] […] was used for curve fitting and calculation of IC50 values.
(§3) Compound effect was calculated with the formula below;
(§4) where X represents the effect in the presence of test compound, min is DMSO and max is the maximum inhibition of enzyme using a known inhibitor as control.

The target of assay [2] is over expressed HSD17β13 in HEK293S cells (Homo sapiens (Human), UniProt Q7Z5P4). The experiment in a line: In Vitro 17bHSD13 Cell Assay. To be noted: HEK293S cells over expressing HSD17β13; estradiol to estrone conversion, 18 h, LC-MS/MS; read-out: 17bHSD1713 Cell assay IC50. Format: cell-based. As to the method:
In Vitro 17bHSD13 Cell Assay
Inhibition of 17bHSD13 was measured in a cell-based assay with over expressed HSD17β13 in HEK293S cells, measuring estradiol to estrone conversion by LCMS/MS.
Samples were analyzed using LC-MS/MS.
as §1, with “analysed” for “analyzed”
as §2, §3, §4

Assay [3] deals with over expressed HSD17β9 in HEK293S cells (Homo sapiens (Human), UniProt Q92781). The experiment in a line: In Vitro 17bHSD9 Cell Assay. To be noted: HEK293S cells over expressing HSD17β9; retinol to retinal conversion, 18 h, LC-MS/MS; read-out: 17bHSD9 Cell assay IC50. The format is cell-based. Here is the method:
In Vitro 17bHSD9 Cell Assay
Inhibition of 17bHSD9 was measured in a cell-based assay with over expressed HSD17β9 in HEK293S cells, measuring retinol to retinal conversion by LCMS/MS.
Cells were plated in 384 well plates (GREINER CELL culture plate 384w black/clear Poly-D-Lysine) at 10 K c/w in 30 μl of culture media (DMEM with GLUTAMAX plus 10% FBS). […] After 18 h of cell culturing for 20 μl of media was transferred using BRAVO dispensing robot (AGILENT) to a GREINER PP 384 well plate (781280) and 40 μl of 50% acetonitrile was added. Samples were analyzed using LC-MS/MS.
SCIEX LC-MS/MS system: Sample was injected with CTC analytical injector, SHIMATZU LC pumps LC20 and analysed on the SCIEX API 5000 LCMSMS system with the following settings. Samples were chromatographed on a WATERS, symmetry, C8, 3.5 μm, 2.1×50 mm) column at constant flow rate of 0.5 mL/min. The mobile phases consists of A (water with 0.2% formic acid) and B (acetonitrile with 0.2% formic acid). The LC gradient profile is as follows: 50% B during 0 to 0.1 min, a linear increase to 100% B during 0.1 to 0.8 min, hold at 100% B during 0.8 to 1.5 min then back to 50% B from 1.5 to 1.6 min and hold during run time. The run time was 2 min with retention times of approximately 1.54 and 1.62 min for Retinol and Retinal, respectively. Detection was performed on a API 5000 LC/MS/MS system with a triple quadrupole mass spectrometer, a TURBO V ion source, in multiple reaction monitoring (MRM) mode at positive polarity with ESI probe. The MRM pairs were m/z 269.3 to m/z 93.0 and m/z 285.2 to 161.0. for Retinol and Retinal, respectively. The dwell times were 100 ms for each transition and a depolarization and collision energy of 50 and 25, respectively. Data from MS signals was using area under curve (AUC). Ratio=Retinal/(Retinal+Retinol).
as §2, §3, §4

Bounds are passed on as bounds.

over expressed HSD17β9 in HEK293S cells, sequence (Q92781 whole entry): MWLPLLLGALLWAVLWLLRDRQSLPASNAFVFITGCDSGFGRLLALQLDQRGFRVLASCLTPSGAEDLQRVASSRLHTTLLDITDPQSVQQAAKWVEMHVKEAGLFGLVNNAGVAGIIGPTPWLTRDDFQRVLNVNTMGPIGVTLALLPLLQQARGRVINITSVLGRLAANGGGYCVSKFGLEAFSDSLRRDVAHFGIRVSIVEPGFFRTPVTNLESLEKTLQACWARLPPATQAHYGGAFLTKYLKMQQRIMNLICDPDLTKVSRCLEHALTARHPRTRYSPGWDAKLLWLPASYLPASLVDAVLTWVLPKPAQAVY
recombinant 17bHSD13 (N2-K300), sequence (Q7Z5P4 2-300): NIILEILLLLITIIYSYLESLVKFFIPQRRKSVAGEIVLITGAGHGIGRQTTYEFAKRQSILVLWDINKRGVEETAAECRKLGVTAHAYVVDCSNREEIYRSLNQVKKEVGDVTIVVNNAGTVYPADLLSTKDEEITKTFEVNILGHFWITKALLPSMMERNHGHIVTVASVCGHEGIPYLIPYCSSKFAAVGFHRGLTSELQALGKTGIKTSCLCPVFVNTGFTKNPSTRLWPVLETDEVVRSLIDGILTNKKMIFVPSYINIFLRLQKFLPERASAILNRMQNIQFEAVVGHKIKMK
over expressed HSD17β13 in HEK293S cells, sequence (Q7Z5P4 20-300): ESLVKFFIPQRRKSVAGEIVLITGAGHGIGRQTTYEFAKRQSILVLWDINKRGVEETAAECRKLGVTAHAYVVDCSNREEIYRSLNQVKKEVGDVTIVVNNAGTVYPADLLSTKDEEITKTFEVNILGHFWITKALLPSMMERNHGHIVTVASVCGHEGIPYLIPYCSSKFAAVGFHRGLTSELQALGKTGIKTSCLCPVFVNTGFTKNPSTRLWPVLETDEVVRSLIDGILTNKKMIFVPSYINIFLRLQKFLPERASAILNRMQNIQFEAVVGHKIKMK

As to `O=C(NCc1ccnn1C1CCCCC1)c1cnc(-c2ccc(F)c(O)c2)o1` [Example 100, N-((1-Cyclohexyl-1H-pyrazol-5-yl)methyl)-2-(4-fluoro-3-hydroxyphenyl)oxazole-5-carboxamide], the IC50 is 5.34 µM in assay [1] and 18.1 µM in assay [2].
Regarding `Cc1ccc2[nH]c(CN(C)C(=O)c3noc(-c4cc(F)c(F)c(O)c4F)n3)nc2c1` [Example 73, N-Methyl-N-((5-methyl-1H-benzo[d]imidazol-2-yl)methyl)-5-(2,4,5-trifluoro-3-hydroxyphenyl)-1,2,4-oxadiazole-3-carboxamide], the figures for the IC50 in assay [3], in assay [1] and in assay [2] were over 50 µM, 0.088 µM and 21.6 µM, respectively.
In the same order, the values of `CN(C(=O)c1noc(-c2ccc(F)c(O)c2)n1)c1nnnn1-c1ccccc1` [Example 92, 5-(4-Fluoro-3-hydroxyphenyl)-N-methyl-N-(1-phenyl-1H-tetrazol-5-yl)-1,2,4-oxadiazole-3-carboxamide] are over 50 µM, 0.041 µM and 1.54 µM.
As for `CN(C(=O)c1nnc(-c2ccc(F)c(O)c2)o1)c1nnnn1-c1ccccc1` [Example 91, 5-(4-Fluoro-3-hydroxyphenyl)-N-methyl-N-(1-phenyl-1H-tetrazol-5-yl)-1,3,4-oxadiazole-2-carboxamide], the IC50 in assay [1] was 0.166 µM; in assay [2], over 50 µM.
In the same order, the values of `O=C(c1noc(-c2cc(F)c(F)c(O)c2F)n1)N1Cc2ccc(F)cc2C1` [Example 65, (5-Fluoroisoindolin-2-yl)(5-(2,4,5-trifluoro-3-hydroxyphenyl)-1,2,4-oxadiazol-3-yl)methanone] are 0.134 µM and 0.2 µM.
As for `Cc1cc2nc(CN(C)C(=O)c3noc(-c4cc(F)c(F)c(O)c4F)n3)[nH]c2cc1C` [Example 71, N-((5,6-Dimethyl-1H-benzo[d]imidazol-2-yl)methyl)-N-methyl-5-(2,4,5-trifluoro-3-hydroxyphenyl)-1,2,4-oxadiazole-3-carboxamide], the half-inhibitory concentration (IC50) in assay [1] is 0.068 µM; in assay [2], 28.4 µM.
Consider `Cc1cccnc1CN(C(=O)c1noc(-c2cc(F)c(F)c(O)c2F)n1)C(C)C` [Example 75, N-Isopropyl-N-((3-methylpyridin-2-yl)methyl)-5-(2,4,5-trifluoro-3-hydroxyphenyl)-1,2,4-oxadiazole-3-carboxamide], for which the 50% inhibitory concentration (IC50) in assay [1] came out at 0.268 µM; in assay [2] it was 5.6 µM.
On to `O=C(c1cc(-c2ccc(F)c(O)c2)on1)N1CC[C@H](c2ccccc2)C1` [Example 101, (R)-(5-(4-Fluoro-3-hydroxyphenyl)isoxazol-3-yl)(3-phenylpyrrolidin-1-yl)methanone], for which the IC50 in assay [3] is over 50 µM; in assay [1] it was 0.05 µM; in assay [2], 0.42 µM.
Taken in the same sequence, the figures for `COc1cccc(N2CCN(C(=O)c3noc(-c4cc(C(F)(F)F)[nH]c(=O)c4)n3)CC2)c1` [Example 10, 4-(3-(4-(3-Methoxyphenyl)piperazine-1-carbonyl)-1,2,4-oxadiazol-5-yl)-6-(trifluoromethyl)pyridin-2(1H)-one] were over 50 µM, 0.474 µM and 4.14 µM.
In the case of `N#Cc1c(C(=O)N2CCC(n3cc(-c4ccc(F)cc4)[nH]c3=O)CC2)noc1-c1cc(F)c(F)c(O)c1F` [Example 24, 3-(4-(4-(4-Fluorophenyl)-2-oxo-2,3-dihydro-1H-imidazol-1-yl)piperidine-1-carbonyl)-5-(2,4,5-trifluoro-3-hydroxyphenyl)isoxazole-4-carbonitrile], the IC50 in assay [1] amounted to 0.198 µM; in assay [2], 3.5 µM.
Turning to `CN(C)C(=O)C1CCCN1C(=O)c1ccc(-c2cc(F)c(F)c(O)c2F)s1` (stereo not shown) [Example 105, N,N-Dimethyl-1-(5-(2,4,5-trifluoro-3-hydroxyphenyl)thiophene-2-carbonyl)pyrrolidine-2-carboxamide], the IC50 was determined as 3.76 µM in assay [1] and 1.26 µM in assay [2].
With `COc1ccc(N2CCN(C(=O)c3noc(-c4cc(F)c(F)c(O)c4F)n3)CC2)cc1` [Example 55, (4-(4-Methoxyphenyl)piperazin-1-yl)(5-(2,4,5-trifluoro-3-hydroxyphenyl)-1,2,4-oxadiazol-3-yl)methanone], the values for the half-maximal inhibitory concentration (IC50) in assay [1] and in assay [2] were 0.112 µM and 0.96 µM, respectively.
In the same order, the values of `N#Cc1c(C(=O)N2CC(C(F)(F)F)C2)noc1-c1cc(F)c(F)c(O)c1F` [Example 28, 5-(2,4,5-Trifluoro-3-hydroxyphenyl)-3-(3-(trifluoromethyl)azetidine-1-carbonyl)isoxazole-4-carbonitrile] are 0.368 µM and 4.13 µM.
As to `O=C(c1noc(-c2cc(F)c(F)c(O)c2F)n1)N1CCC2(C1)OCc1ccccc12` (stereo not shown) [Example 102, (3H-Spiro[isobenzofuran-1,3′-pyrrolidin]-1′-yl)(5-(2,4,5-trifluoro-3-hydroxyphenyl)-1,2,4-oxadiazol-3-yl)methanone], the results for the IC50 in assay [3], in assay [1] and in assay [2] were over 50 µM, 0.052 µM and 0.7 µM, respectively.
Regarding `COc1cccc(N2CCN(C(=O)c3noc(-c4cc(F)c(F)c(O)c4F)n3)CC2)c1` [Example 61, (4-(3-Methoxyphenyl)piperazin-1-yl)(5-(2,4,5-trifluoro-3-hydroxyphenyl)-1,2,4-oxadiazol-3-yl)methanone], the IC50 is over 50 µM in assay [3], 0.05 µM in assay [1] and 0.73 µM in assay [2].
For `O=C(c1noc(-c2cc(F)c(F)c(O)c2F)n1)N1CCN(c2ccccc2)CC1` [Example 81, (4-Phenylpiperazin-1-yl)(5-(2,4,5-trifluoro-3-hydroxyphenyl)-1,2,4-oxadiazol-3-yl)methanone], the IC50 in assay [3] was over 50 µM; in assay [1] it was 0.095 µM; in assay [2], 0.41 µM.
Regarding `CN(C(=O)c1noc(-c2cc(F)c(F)c(O)c2F)n1)c1cccc(C#N)c1` [Example 63, N-(3-Cyanophenyl)-N-methyl-5-(2,4,5-trifluoro-3-hydroxyphenyl)-1,2,4-oxadiazole-3-carboxamide], the 50% inhibitory concentration (IC50) in assay [2] was 1.19 µM.

As a reminder, the IC50 is the concentration needed to halve the response being measured.
